# Reference: patent US12290513B2, “Therapeutic methods and compositions for treating movement disorders” (Vima Therapeutics, Inc., priority 2023, dated 2025)
# Like-named read-outs stand apart in the source and are kept apart here.
# Key:
# [1] = Hepatocyte stability, rat
# Procedure: • 1. 10 mM stock solutions of test compounds and positive control compound were prepared in appropriate solvent (DMSO). • 2. In separate conical tubes, 10 mM test compound and positive controls were diluted to 100 μM by combining 198 μL of 50% acetonitrile/50% water and 2 μL of 10 mM stock. Preparation of Hepatocytes • 1. Incubation medium (William's E Medium supplemented with GlutaMAX) and hepatocyte thawing medium were placed in a 37C water bath and warmed for at least 15 minutes prior to use. • 2. A vial of cryopreserved hepatocytes was thawed by placing the vial in a 37C water bath and gently shaken for 2 minutes. After thawing was completed, the vial was cleaned with 70% ethanol and transferred to a biosafety cabinet. • 3. Using wide-bore pipette tips, hepatocytes were transferred into a 50 mL conical tube containing thawing medium. The 50 mL conical tube was placed into a centrifuge and spun at 100 g for 10 minutes. […] Using AO/PI Staining, cells were counted to determine the viable cell density. Cells were diluted with incubation medium to a working cell density of 0.5×10^6 viable cells/mL. Procedure for Stability Determination • 1. 198 μL of hepatocytes were pipetted into each well of a 96-well non-coated plate. The plate was placed in the incubator to allow the hepatocytes to warm for 10 minutes. • 2. 2 μL of the 100 μM test compound or positive control was pipetted into respective wells of the 96-well non-coated plate to start the reaction. The plate was returned to the incubator for the designed time points. • 3. The contents of the wells were removed in 25 μL aliquots at time points of 0.5, 15, 30, 60, 90 and 120 minutes. The aliquots were then mixed with 6 volumes (150 μL) of acetonitrile containing an internal standard, IS (100 nM alprazolam, 200 nM caffeine and 100 nM tolbutamide), to terminate the reaction. Samples were vortexed for 5 minutes and centrifuged for 45 minutes at 3,220 g. Aliquots of 100 μL of supernatant were diluted with 100 μL ultra-pure water, and the mixture was used for LC/MS/MS analysis. All incubations were performed in duplicate. Data Analysis
# All calculations were carried out using Microsoft Excel and according to standard analysis methods that are known in the art.
# [2] = test system: Cerep87 Safety Panel receptors; assay: Cerep87 Safety Panel (Eurofins), whole panel statements; assay type: binding
# [3] = Procedure: The resulting metabolites were analyzed by liquid chromatography-mass spectrometry, and metabolite peaks were detected and measured.
# [4] = biological target: M4 (h) (antagonist radioligand) (Homo sapiens, UniProt P08173); conditions: at the tested concentration; negative values set to zero
# Chain of M4 (h) (antagonist radioligand) (P08173 whole entry): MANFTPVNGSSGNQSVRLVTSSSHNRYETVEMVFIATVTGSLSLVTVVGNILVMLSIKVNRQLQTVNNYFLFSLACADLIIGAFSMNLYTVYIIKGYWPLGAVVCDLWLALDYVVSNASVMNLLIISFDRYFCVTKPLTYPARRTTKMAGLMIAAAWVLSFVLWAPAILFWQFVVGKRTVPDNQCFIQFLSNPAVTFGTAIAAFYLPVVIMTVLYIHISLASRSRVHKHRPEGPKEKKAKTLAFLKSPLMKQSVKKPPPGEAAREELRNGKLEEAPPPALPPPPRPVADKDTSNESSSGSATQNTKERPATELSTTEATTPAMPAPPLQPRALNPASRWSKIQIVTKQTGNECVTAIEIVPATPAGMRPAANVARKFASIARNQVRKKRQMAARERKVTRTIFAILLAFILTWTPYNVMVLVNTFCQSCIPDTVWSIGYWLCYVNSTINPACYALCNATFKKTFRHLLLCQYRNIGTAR
# [5] = biological target: D2S (h) (agonist radioligand) (Homo sapiens, UniProt P14416); conditions: at the tested concentration; negative values set to zero
# Chain of D2S (h) (agonist radioligand) (P14416 1-414 isoform P14416-2): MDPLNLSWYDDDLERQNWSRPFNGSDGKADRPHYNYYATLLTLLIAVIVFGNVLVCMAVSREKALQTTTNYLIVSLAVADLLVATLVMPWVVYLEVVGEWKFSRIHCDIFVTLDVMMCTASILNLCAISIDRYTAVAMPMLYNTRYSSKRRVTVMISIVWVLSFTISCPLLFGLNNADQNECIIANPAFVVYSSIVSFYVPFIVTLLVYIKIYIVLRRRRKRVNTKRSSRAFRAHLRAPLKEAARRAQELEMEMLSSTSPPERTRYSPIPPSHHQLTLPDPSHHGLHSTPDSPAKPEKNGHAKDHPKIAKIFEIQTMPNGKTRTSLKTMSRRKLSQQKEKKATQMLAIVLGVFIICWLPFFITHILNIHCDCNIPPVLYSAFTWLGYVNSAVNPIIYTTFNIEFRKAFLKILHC
# in vitro = conditions: mouse, liver microsomes
# CYP2B6 = biological target: T1, CYP2B6 (Homo sapiens, UniProt P20813); assay: Incubation with recombinant CYP2B6; conditions: for t1/2: unit not given
# T1 sequence (P20813 1-491): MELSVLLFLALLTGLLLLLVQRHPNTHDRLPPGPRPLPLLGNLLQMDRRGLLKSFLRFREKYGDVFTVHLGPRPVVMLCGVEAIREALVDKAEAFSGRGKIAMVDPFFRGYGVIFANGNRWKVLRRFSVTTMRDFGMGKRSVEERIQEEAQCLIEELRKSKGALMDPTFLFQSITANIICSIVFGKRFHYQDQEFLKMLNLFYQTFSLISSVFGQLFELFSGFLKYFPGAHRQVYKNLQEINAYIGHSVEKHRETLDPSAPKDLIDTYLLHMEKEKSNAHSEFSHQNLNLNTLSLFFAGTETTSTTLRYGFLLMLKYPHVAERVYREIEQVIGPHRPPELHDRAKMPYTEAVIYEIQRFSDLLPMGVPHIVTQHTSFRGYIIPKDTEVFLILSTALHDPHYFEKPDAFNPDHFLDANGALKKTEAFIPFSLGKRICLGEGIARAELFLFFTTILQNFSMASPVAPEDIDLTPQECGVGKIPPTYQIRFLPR
# CYP2C8 = biological target: T2, CYP2C8 (Homo sapiens, UniProt P10632); assay: Incubation with recombinant CYP2C8; conditions: for t1/2: unit not given
# T2 sequence (P10632 1-490): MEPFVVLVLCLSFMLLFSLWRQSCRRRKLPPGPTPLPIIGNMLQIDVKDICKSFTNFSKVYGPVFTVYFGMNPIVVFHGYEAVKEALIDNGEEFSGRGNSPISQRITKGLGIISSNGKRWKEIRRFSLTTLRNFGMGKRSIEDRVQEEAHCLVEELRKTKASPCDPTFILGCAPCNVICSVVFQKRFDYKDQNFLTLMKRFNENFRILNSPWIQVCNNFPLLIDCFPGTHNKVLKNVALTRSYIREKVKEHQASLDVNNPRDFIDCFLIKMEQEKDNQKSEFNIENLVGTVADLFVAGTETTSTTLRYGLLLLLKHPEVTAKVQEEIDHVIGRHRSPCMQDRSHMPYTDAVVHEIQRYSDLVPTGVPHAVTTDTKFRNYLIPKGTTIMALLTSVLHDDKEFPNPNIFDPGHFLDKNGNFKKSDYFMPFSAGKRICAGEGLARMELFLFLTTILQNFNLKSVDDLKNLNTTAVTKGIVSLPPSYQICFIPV
# CYP2D6 = CYP2D6 (Homo sapiens, UniProt P10635); assay: Incubation with recombinant CYP2D6
# Chain of CYP2D6 (P10635 whole entry): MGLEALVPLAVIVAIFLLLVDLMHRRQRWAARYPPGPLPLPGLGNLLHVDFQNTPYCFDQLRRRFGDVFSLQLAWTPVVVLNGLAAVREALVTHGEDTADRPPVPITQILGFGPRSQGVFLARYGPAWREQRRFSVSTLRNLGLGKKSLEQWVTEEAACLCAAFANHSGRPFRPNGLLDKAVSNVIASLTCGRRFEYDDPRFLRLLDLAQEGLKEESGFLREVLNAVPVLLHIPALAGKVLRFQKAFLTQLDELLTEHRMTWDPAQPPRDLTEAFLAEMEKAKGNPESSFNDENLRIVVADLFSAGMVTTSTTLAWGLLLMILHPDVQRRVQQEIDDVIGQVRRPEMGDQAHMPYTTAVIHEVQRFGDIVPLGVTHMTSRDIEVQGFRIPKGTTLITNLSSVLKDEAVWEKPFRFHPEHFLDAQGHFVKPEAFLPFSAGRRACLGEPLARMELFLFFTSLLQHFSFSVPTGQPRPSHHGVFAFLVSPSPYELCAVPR
# CYP3A4 = CYP3A4 (Homo sapiens, UniProt P08684); assay: Incubation with recombinant CYP3A4
# Chain of CYP3A4 (P08684 whole entry): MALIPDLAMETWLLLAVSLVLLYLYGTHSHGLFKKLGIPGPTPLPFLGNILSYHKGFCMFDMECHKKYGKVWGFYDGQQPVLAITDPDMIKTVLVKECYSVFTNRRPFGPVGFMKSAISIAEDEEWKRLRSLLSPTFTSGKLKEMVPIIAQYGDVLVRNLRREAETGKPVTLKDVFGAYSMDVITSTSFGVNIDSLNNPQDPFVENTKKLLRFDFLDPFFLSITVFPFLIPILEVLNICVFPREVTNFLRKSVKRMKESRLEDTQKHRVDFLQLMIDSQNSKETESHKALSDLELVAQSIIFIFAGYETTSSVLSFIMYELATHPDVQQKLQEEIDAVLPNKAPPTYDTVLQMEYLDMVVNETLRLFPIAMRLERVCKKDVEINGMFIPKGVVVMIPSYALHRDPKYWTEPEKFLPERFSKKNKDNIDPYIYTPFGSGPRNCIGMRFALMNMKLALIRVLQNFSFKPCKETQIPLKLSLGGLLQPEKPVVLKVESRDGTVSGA
# CYP2C19 = CYP2C19 (Homo sapiens, UniProt P33261); assay: Incubation with recombinant CYP2C19
# Chain of CYP2C19 (P33261 whole entry): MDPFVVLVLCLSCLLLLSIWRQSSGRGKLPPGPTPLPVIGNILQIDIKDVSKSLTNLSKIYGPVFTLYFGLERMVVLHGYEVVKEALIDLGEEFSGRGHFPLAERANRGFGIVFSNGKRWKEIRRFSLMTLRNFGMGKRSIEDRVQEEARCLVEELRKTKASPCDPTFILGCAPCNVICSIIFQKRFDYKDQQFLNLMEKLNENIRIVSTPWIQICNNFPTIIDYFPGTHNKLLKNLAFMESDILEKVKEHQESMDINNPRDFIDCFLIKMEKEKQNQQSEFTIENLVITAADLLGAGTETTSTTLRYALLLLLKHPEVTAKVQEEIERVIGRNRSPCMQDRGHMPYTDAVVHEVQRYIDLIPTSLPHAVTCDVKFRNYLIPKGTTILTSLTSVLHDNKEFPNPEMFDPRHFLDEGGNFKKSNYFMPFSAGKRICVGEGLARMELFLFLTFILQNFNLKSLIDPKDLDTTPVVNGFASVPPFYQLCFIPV
# [6] = dogs
"signal, M4 (h) (antagonist radioligand) [4] [%]","signal, D2S (h) (agonist radioligand) [5] [%]",CLint scaled (in vitro) [mL/min/kg],half-life at 1 μM (in vitro) [min],microsomal CLint at 1 μM (in vitro) [µL/min/mg],CLint (CYP2B6) [µL/min/pmol],t1/2 (CYP2B6),CLint (CYP2C8) [µL/min/pmol],t1/2 (CYP2C8),Substrates of CYP2D6 (CYP2D6),Substrates of CYP3A4 (CYP3A4),Substrates of CYP2C19 (CYP2C19),Structure (SMILES),further results
,,,,,,,,,,,,"C[C@@H](C[N+](C)(C)C)OC(N)=O.[Cl-] [(S)-BTC, (S)-bethanechol]",Predicted Hepatic CLH ([1]; hepatocytes): 0 mL/min/kg; in vitro t1/2 ([1]; hepatocytes): ∞; antagonism at muscarinic receptors of the panel ([2]; only muscarinic receptors): greater than 50%
97.82,35.79,1030,5.56,249,0.00,∞,0.00,∞,"Rac, R and S","Rac, R and S","Rac, R and S","O[C@](CCN1CCCCC1)(c1ccccc1)C1CCCCC1 [(S)-THP, (S)-trihexyphenidyl]",non-muscarinic receptors signaled through ([2]; greater than 25% signal): nine; metabolites detected ([3]; human): two metabolites 18 and 19 were detected at substantial levels
98.88,0.23,2030,2.82,492,0.00,∞,0.00,∞,"Rac, R and S","Rac, R and S","Rac, R and S","O[C@@](CCN1CCCCC1)(c1ccccc1)C1CCCCC1 [(R)-THP, (R)-trihexyphenidyl]","CLint scaled at 1 μM ([1]; cryopreserved hepatocytes): 4420 mL/min/kg; half-life at 1 μM ([1]; cryopreserved hepatocytes): 1.47 min; hepatocyte CLint at 1 μM ([1]; cryopreserved hepatocytes): 945 µL/min/1e6 cells; metabolites detected [3]: no (R)-THP metabolites were present at a significant level above parent molecule; share of total THP that was (R)-THP ([6]; IV 0.2 mg/kg Racemic THP): ~60%; share of serum THP detected that was (R)-THP ([6]; oral 2 mg/kg Racemic THP, alone or co-dosed with Bethanechol): over 80%; half-life (CYP3A4; human): 30.7 min"
